Measurements reported in US9764046B2, “Labeling composition for intraocular tissue, labeling method of intraocular tissue, and screening method” (CANON KABUSHIKI KAISHA, priority 2008, dated 2017).

Legend:
[1] = system: intraocular tissue (retinal tissue incl. photoreceptor cell layer, vitreous body) of Zebrafish 7-day-old embryo; assay: Staining of intraocular tissue of Zebrafish fry by exposure to staining liquid, ocular tissue section observed by confocal microscope; format: in vivo; details: Zebrafish 7 dpf fry, 1 μg/mL, 1 hour exposure, fixed ocular section
[2] = Excitation and fluorescence wavelengths by fluorescence spectrometer FL4500; format: physicochemical; details: in nm (unit assumed)
[3] = system: fundus (retina) of Zebrafish fry; assay: In vivo intraocular observation of the fundus of living Zebrafish fry by confocal microscope; details: 1 μg/mL, 1 hour exposure;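 also: +++ photoreceptor and inner retinal layers stained ++ mainly photoreceptor layer − none seen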
Description: In an arbitrary well of a 24-well multiplate, were put 1 mL of Staining Liquid 2 and a fry of Zebrafish, and the plate was left to stand for 1 hour. A process of removing Staining Liquid 2 in the well and replacing it by 1 mL of distilled water was then performed 3 times.
The fry was then put in a 0.7% agarose solution and placed on a slide glass to observe the fundus of the fry through a confocal microscope.

[4] = aqueous solution: 10 mg/mL DMSO solution diluted to 1/500 with purified water (Examples 1 to 94)
[5] = values in a chloroform solution (Examples 95 to 106)
[6] = Comparative Examples, solvent not stated

Row | λem (fluorescence wavelength) [2, 4] | λex (excitation wavelength) [2, 4] | λem (fluorescence wavelength) [2, 5] | λex (excitation wavelength) [2, 5] | λem (fluorescence wavelength) [2, 6] | λex (excitation wavelength) [2, 6] | Structure (SMILES) | Staining ability [1] | Result of observation (staining ability, in vivo fundus) [3]
1 | 576 | 555 |  |  |  |  | CCN(CC)c1ccc2cc3c(oc2c1)c(C#N)c(=O)n1c2ccccc2nc31 [Compound 6] | ++ | ++
2 | 555 | 469 |  |  |  |  | CCN(CC)c1ccc2cc(-c3nc4ccccc4s3)c(=O)oc2c1 [Compound 7] | ++ | +++
3 | 592 | 477 |  |  |  |  | CC1(C)CCN2CCC(C)(C)c3c2c1cc1cc(-c2nc4ccccc4s2)c(=O)oc31 [Compound 8] | ++ | +++
4 | 514 | 464 |  |  |  |  | CCN(CC)c1ccc2cc(-c3nc4ccccc4[nH]3)c(=O)oc2c1 [Compound 9] | ++ | ++
5 | 476 | 422 |  |  |  |  | CCN(CC)c1ccc2cc(-c3nc4cc(Cl)ccc4o3)c(=O)oc2c1 [Compound 11] | +++ | +++
6 | 509 | 463 |  |  |  |  | CCCN(CCC)c1ccc2cc(-c3nc4ccccc4[nH]3)c(=O)oc2c1 [Compound 12] | ++ | ++
7 | 504 | 472 |  |  |  |  | CCN(CC)c1ccc2cc(-c3nc4ccc(C)cc4o3)c(=O)oc2c1 [Compound 13] | +++ | +++
8 | 661 | 566 |  |  |  |  | COc1ccc2cc(N3c4ccc(/C=C5\SC(=S)N(CC(=O)O)C5=O)cc4[C@@H]4CCC[C@@H]43)ccc2c1 [Compound 36] | +++ | ++
9 | 619 | 541 |  |  |  |  | O=C(O)CCN1C(=O)/C(=C\c2ccc3c(c2)C2CCCC2N3c2ccccc2)SC1=S (stereo not shown) [Compound 48] | ++ | ++
10 | 636 | 527 |  |  |  |  | CSc1ccc(N2c3ccc(/C=C4/SC(=S)N(CC(=O)O)C4=O)cc3C3CCCC32)cc1 (stereo not shown) [Compound 66] | +++ | ++
11 | 640 | 520 |  |  |  |  | CSc1cccc(N2c3ccc(/C=C4/SC(=S)N(CC(=O)O)C4=O)cc3C3CCCC32)c1 (stereo not shown) [Compound 103] | ∘ | 
12 | 650 | 510 |  |  |  |  | O=C(O)CN1C(=O)/C(=C2C=C/C(=C\c3ccc4c(c3)C3CCCC3N4c3ccccc3)C\2)SC1=S (stereo not shown) [Compound 106] | ∘ | 
13 | 490 | 380 |  |  |  |  | O=C1/C(=C/c2ccc3c(c2)C2CCCC2N3c2ccccc2)Oc2ccc(I)cc21 (stereo not shown) [Compound 107] | ∘ | 
14 | 680 | 530 |  |  |  |  | COc1ccc(N2c3ccc(/C=C4\Oc5ccc(I)cc5C4=O)cc3C3CCCC32)cc1 (stereo not shown) [Compound 108] | ∘ | 
15 | 630 | 540 |  |  |  |  | Cc1cc(C)cc(Nc2ccc3c4c(cc(=O)n3C)-c3ccccc3C(=O)c24)c1 [Compound 109] | ∘ | 
16 |  |  | 614 | 538 |  |  | Cn1c(=O)cc2c3c(c(Nc4ccccc4)ccc31)C(=O)c1ccccc1-2 [Compound 110] | ∘ | 
17 |  |  | 589 | 527 |  |  | Nc1c(Br)cc(O)c2c1C(=O)c1ccccc1C2=O [Compound 111] | ∘ | 
18 |  |  | 568 | 513 |  |  | Nc1c(OCCCOc2ccccc2)cc(O)c2c1C(=O)c1ccccc1C2=O [Compound 112] | ∘ | 
19 |  |  | 575 | 514 |  |  | COC(=O)CCc1ccc(Oc2cc(O)c3c(c2N)C(=O)c2ccccc2C3=O)c(C)c1 [Compound 113] | ∘ | 
20 |  |  | 614 | 540 |  |  | Cc1cccc(Nc2ccc3c4c(cc(=O)n3C)-c3ccccc3C(=O)c24)c1 [Compound 115] | ∘ | 
21 |  |  | 584 | 537 |  |  | COc1ccc(Nc2ccc3c4c(cc(=O)n3C)-c3ccccc3C(=O)c24)cc1 [Compound 116] | ∘ | 
22 |  |  | 581 | 538 |  |  | CCOc1ccc(Nc2ccc3c4c(cc(=O)n3C)-c3ccccc3C(=O)c24)cc1 [Compound 117] | ∘ | 
23 |  |  | 634 | 540 |  |  | CCCCc1ccc(Nc2ccc3c4c(cc(=O)n3C)-c3ccccc3C(=O)c24)cc1 [Compound 118] | ∘ | 
24 |  |  | 609 | 537 |  |  | Cc1ccc(Nc2ccc3c4c(cc(=O)n3C)-c3ccccc3C(=O)c24)c(C)c1 [Compound 120] | ∘ | 
25 |  |  | 609 | 537 |  |  | Cc1ccc(C)c(Nc2ccc3c4c(cc(=O)n3C)-c3ccccc3C(=O)c24)c1 [Compound 121] | ∘ | 
26 |  |  | 582 | 534 |  |  | Cc1cccc(C)c1Nc1ccc2c3c(cc(=O)n2C)-c2ccccc2C(=O)c13 [Compound 122] | ∘ | 
27 |  |  |  |  |  |  | O=C1OC2(c3ccc(O)cc3Oc3cc(O)ccc32)c2ccccc21 [Fluorescein, fluorescein, reference compound] | − | −
28 |  |  |  |  | 811 | 784 | CC1(C)C(/C=C/C=C/C=C/C=C2\N(CCCCS(=O)(=O)O)c3ccc4ccccc4c3C2(C)C)=[N+](CCCCS(=O)(=O)[O-])c2ccc3ccccc3c21 [ICG, indocyanine green, reference compound] | − | −

Row | Structure (SMILES) | λem (fluorescence wavelength) [2, 4] | λex (excitation wavelength) [2, 4] | λem (fluorescence wavelength) [2, 5] | λex (excitation wavelength) [2, 5] | λem (fluorescence wavelength) [2, 6] | λex (excitation wavelength) [2, 6] | Staining ability [1] | Result of observation (staining ability, in vivo fundus) [3]
29 | Nc1c(OCCOC(=O)Oc2ccccc2)cc(O)c2c1C(=O)c1ccccc1C2=O [Compound 114] |  |  | 568 | 513 |  |  | ∘ | 
